This passage reports IC50 results from patent publication EP4660184A1 (Eurofarma Laboratórios S.A., priority 2023, dated 2024).

Bounds are passed on as bounds.

Experiment [1] addresses T1, human sodium channels Nav 1.8 (Homo sapiens, UniProt Q9Y5Y9).
T1 construct: expressed in transfected cells
The experiment can be described thus: Automated whole-cell voltage-clamp (ScreenPatch 384P) sodium current block, Nav 1.8. Type of experiment: cell-based. Conditions: CHO cells stably expressing human Nav 1.8; inactivation step -40 mV for 8 seconds, test step 10 mV (TP1A); exposure at least five minutes; room temperature; mean if two or more assays; read-out: Nav1.8 IC50. How it is done: (§1) Biological assays were performed on Chinese hamster ovary (CHO) cells that express human sodium channels Nav 1.8 or Nav 1.7 in a stable manner.
(§2) The experimental protocol voltage-clamp using the whole cell configuration was established on the automated ScreenPatch® 384P platform (SP384PE, Nanion Technologies, Livingston, NJ) and the results were recorded with a Nanion 384-well Patch Clamp chip (NPC) (Nanion Technologies, Livingston, NJ).
(§3) Formula I compounds were diluted in eight concentrations in the extracellular solution composed of saline saline solution, buffered with HEPES (mM): NaCl, 137; KCl, 4; CaCl2, 3,8; MgCl2, 1; HEPES, 10; Glucose, 10; pH 7.4. The […], 50; CsF, 90; MgCl2, 5; EGTA, 5; HEPES, 10; pH 7.2. The duration of exposure of each compound with cells expressing Nav 1.7 or Nav 1.8 was at least five minutes and the assays were performed at room temperature.
(§4) The measurements of the sodium currents of Nav 1.8 and Nav 1.7 were obtained using the voltage protocol described below.
(§5) A holding voltage of -100 mV was established followed by an inactivation voltage step at -40 mV for 8 seconds, followed by a step of -100 mV for 20 ms, followed by a 20 ms step for 10 mV for Nav 1.8 or 0 mV for Nav 1.7 (TP1A) before returning to the holding voltage of -100 mV.
(§6) The protocol was repeated at a frequency of 0.05 Hz and the amplitude of the current was quantified throughout the recording of the TP1A phase. The variation in the amplitude of the peak current was evaluated according to the formula described below, after exposing the cells expressing the channels to each concentration of the different compounds: % Block = (1−(ITP1A,molecule/ITP1A,basal)×100%, [formula] wherein ITP1A,basal and ITP1A,molecule represent the peaks of sodium current input into TP1A before exposure to the compound and in the presence of the compound, respectively.
(§7) Data were obtained by nonlinear regression (nonlinear least squares) with XLfit for Excel (Microsoft, Redmond, WA).
(§8) The compounds were tested in at least one assay to obtain the value of CI50. For compounds that were tested in two or more assays, the results are described as the mean of the CI50 values.

The target in experiment [2] is T2, human sodium channels Nav 1.7 (Homo sapiens, UniProt Q15858).
T2 construct: expressed in transfected cells
T2 sequence (Q15858 whole entry): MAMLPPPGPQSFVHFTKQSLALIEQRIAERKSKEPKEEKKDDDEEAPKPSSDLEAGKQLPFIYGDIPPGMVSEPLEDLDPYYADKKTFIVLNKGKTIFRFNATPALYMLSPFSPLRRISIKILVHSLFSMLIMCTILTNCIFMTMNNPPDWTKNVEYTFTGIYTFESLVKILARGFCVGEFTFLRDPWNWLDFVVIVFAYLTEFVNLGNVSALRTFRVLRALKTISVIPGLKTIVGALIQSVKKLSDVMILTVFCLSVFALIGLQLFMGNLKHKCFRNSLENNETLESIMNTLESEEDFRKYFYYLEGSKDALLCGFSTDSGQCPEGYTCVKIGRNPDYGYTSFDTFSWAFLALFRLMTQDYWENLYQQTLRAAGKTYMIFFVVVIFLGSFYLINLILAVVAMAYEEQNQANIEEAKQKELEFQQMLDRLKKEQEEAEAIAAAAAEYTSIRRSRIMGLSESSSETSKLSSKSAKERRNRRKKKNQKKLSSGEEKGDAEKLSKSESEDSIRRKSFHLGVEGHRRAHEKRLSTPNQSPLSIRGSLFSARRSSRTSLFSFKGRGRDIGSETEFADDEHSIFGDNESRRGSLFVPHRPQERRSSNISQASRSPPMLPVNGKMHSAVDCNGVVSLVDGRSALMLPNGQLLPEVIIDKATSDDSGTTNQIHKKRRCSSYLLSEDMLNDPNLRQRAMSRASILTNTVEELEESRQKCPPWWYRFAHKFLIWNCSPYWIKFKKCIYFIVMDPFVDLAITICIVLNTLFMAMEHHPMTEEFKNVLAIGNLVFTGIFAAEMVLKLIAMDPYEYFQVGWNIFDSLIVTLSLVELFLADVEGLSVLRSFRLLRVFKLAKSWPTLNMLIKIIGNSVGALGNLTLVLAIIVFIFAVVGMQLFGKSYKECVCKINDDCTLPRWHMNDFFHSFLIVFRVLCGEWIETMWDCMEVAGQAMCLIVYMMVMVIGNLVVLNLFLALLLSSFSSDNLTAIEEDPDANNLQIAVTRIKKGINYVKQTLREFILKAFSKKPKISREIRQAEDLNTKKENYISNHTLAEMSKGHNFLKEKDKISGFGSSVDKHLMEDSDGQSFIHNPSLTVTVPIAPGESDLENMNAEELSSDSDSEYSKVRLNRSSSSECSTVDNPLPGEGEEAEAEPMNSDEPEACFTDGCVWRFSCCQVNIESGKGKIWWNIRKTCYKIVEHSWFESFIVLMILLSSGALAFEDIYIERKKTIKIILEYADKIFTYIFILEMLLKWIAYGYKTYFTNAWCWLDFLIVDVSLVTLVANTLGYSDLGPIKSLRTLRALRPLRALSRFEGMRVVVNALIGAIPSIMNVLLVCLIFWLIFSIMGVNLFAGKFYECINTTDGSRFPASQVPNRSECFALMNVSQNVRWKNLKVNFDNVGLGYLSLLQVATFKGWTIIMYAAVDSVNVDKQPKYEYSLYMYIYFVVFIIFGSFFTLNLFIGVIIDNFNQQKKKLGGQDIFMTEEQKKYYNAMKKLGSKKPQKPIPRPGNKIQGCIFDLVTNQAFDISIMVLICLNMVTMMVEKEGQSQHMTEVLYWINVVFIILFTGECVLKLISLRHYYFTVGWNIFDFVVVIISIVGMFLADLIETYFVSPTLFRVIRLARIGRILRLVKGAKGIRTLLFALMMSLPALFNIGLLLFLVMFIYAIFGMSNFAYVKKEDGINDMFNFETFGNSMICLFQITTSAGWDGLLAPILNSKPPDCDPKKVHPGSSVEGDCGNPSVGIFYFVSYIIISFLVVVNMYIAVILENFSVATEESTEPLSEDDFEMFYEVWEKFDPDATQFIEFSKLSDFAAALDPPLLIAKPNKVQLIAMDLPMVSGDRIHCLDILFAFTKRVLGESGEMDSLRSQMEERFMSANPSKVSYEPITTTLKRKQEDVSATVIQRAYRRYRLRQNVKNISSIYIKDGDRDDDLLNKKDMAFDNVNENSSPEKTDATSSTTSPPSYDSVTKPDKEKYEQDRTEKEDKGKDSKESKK
As to the kind of experiment: Automated whole-cell voltage-clamp (ScreenPatch 384P) sodium current block, Nav 1.7. Type of experiment: cell-based. Conditions: CHO cells stably expressing human Nav 1.7; inactivation step -40 mV for 8 seconds, test step 0 mV (TP1A); exposure at least five minutes; room temperature; mean if two or more assays; read-out: Nav1.7 IC50. How it is done: as §1, §2, §3, §4, §5, §6, §7, §8

T1 sequence (Q9Y5Y9 whole entry): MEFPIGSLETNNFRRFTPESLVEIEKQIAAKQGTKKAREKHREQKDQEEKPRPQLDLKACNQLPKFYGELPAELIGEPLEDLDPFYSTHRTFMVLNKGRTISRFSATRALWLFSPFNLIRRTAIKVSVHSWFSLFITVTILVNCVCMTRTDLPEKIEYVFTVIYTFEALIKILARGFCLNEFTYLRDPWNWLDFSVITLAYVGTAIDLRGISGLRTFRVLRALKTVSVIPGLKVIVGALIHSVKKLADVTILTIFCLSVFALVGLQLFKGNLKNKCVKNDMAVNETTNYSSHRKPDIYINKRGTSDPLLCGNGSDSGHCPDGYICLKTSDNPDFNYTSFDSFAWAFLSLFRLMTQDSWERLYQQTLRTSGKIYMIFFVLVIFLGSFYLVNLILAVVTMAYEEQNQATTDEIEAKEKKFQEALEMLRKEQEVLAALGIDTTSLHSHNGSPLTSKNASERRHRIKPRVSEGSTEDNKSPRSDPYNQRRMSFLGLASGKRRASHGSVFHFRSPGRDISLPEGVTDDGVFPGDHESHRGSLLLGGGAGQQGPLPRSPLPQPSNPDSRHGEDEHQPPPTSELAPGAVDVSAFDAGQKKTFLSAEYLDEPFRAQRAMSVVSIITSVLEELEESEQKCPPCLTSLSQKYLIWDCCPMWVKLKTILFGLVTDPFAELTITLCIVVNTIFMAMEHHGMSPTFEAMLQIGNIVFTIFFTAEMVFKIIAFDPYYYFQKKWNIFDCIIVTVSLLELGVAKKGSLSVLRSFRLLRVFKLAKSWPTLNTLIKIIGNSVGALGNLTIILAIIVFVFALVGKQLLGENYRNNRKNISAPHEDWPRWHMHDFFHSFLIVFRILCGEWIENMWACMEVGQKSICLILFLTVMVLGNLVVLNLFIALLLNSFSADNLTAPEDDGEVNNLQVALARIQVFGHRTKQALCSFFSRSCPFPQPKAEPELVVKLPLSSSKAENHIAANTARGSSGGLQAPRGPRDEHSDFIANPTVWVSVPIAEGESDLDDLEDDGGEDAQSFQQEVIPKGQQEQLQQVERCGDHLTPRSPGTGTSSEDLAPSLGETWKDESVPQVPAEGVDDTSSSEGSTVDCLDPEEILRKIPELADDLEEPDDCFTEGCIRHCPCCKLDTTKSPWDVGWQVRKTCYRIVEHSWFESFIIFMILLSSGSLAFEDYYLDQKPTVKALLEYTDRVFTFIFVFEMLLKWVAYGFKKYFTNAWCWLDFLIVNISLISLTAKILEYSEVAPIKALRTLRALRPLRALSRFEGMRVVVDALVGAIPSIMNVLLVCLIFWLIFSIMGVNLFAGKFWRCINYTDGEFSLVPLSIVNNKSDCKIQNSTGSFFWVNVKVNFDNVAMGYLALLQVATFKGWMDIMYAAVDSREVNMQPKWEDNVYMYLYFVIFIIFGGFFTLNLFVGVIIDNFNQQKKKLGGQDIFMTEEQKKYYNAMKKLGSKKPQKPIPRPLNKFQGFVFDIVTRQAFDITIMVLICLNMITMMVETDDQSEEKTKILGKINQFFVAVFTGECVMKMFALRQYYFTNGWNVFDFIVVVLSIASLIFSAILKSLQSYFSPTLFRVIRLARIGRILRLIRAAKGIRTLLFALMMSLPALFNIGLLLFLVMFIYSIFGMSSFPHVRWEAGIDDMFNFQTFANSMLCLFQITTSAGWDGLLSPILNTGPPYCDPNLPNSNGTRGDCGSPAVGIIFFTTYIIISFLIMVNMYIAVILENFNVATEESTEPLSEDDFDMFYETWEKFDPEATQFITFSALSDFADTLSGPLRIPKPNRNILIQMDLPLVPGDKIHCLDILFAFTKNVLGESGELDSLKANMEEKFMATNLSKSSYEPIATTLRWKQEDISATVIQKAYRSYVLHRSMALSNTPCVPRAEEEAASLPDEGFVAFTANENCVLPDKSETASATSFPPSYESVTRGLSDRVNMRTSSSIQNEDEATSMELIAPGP

Take `COc1ccc(F)c(CONC(=O)c2cncc(-c3ccc([S+](C)[O-])cc3)n2)c1` (stereo not drawn) [Compound 29, N-((2-fluoro-5-methoxybenzyl)oxy)-6-(4-(methylsulfinyl)phenyl)pyrazine-2-carboxamide]: the IC50 in experiment [1] and in experiment [2] was above 1000 nM in each case.

As to `COc1ccc(F)c(CONC(=O)c2cncc(-c3ccc(OC)nc3)n2)c1` [Compound 30, N-((2-fluoro-5-methoxybenzyl)oxy)-6-(6-methoxypyridine-3-yl)pyrazine-2-carboxamide], the IC50 (as a rule, the midpoint of a concentration-inhibition curve) in experiment [1] was below 500 nM; in experiment [2], above 1000 nM.

Consider `COc1ccc(F)c(CONC(=O)c2cncc(-c3ccc(OC(C)C)nc3)n2)c1` [Compound 31, N-((2-fluoro-5-methoxybenzyl)oxy)-6-(6-isopropoxypyridine-3-yl)pyrazine-2-carboxamide], for which the IC50 in experiment [1] was 500 to 1000 nM; in experiment [2], above 1000 nM.

As to `CCOc1ccc(-c2cncc(C(=O)NOCc3ccccc3F)n2)cn1` [Compound 32, 6-(6-ethoxypyridine-3-yl)-N-((2-fluorobenzyl)oxy)pyrazine-2-carboxamide], the figures for the IC50 in experiment [1] and in experiment [2] were 500 to 1000 nM and above 1000 nM, respectively.

Take `CCOc1ccc(-c2cncc(C(=O)NOCc3cccc(OC)c3)n2)cn1` [Compound 33, 6-(6-ethoxypyridine-3-yl)-N-((3-methoxybenzyl)oxy)pyrazine-2-carboxamide]: the IC50 in experiment [1] was below 500 nM; in experiment [2] it was above 1000 nM.

As for `CCOc1ccc(-c2cncc(C(=O)NOCc3ccccc3O)n2)cn1` [Compound 34, 6-(6-ethoxypyridine-3-yl)-N-((2-hydroxybenzyl)oxy)pyrazine-2-carboxamide], the IC50 in experiment [1] and in experiment [2] was above 1000 nM in each case.

As to `CCOc1ccc(-c2cncc(C(=O)NOCc3cccc(O)c3)n2)cn1` [Compound 35, 6-(6-ethoxypyridine-3-yl)-N-((3-hydroxybenzyl)oxy)pyrazine-2-carboxamide], the half-maximal inhibitory concentration (IC50) was below 500 nM in experiment [1] and above 1000 nM in experiment [2].

Consider `CCOc1ccc(-c2cncc(C(=O)NOCc3cncc(OC)c3)n2)cn1` [Compound 36, 6-(6-ethoxypyridine-3-yl)-N-((5-methoxypyridine-3-yl)methoxy)pyrazine-2-carboxamide], for which the values for the IC50 in experiment [1] and in experiment [2] were below 500 nM and above 1000 nM, respectively.

For `CCOc1ccc(-c2cncc(C(=O)NOCc3cc(OC)ccc3F)n2)cn1` [Compound 37, 6-(6-ethoxypyridine-3-yl)-N-((2-fluoro-5-methoxybenzyl)oxy)pyrazine-2-carboxamide], the IC50 in experiment [1] is below 500 nM; in experiment [2], above 1000 nM.

For the molecule `CCOc1ccc(-c2cncc(C(=O)NOCc3cc(OC)cnc3F)n2)cn1` [Compound 38, 6-(6-ethoxypyridine-3-yl)-N-((2-fluoro-5-methoxypyridine-3-yl)methoxy)pyrazine-2-carboxamide], the IC50 in experiment [1] was below 500 nM; in experiment [2], above 1000 nM.

Regarding `CCOc1ccc(-c2cncc(C(=O)NOCc3cc(OC)ncc3F)n2)cn1` [Compound 39, 6-(6-ethoxypyridine-3-yl)-N-((5-fluoro-2-methoxypyridine-4-yl)methoxy)pyrazine-2-carboxamide], the IC50 in experiment [1] was below 500 nM; in experiment [2], above 1000 nM.

For the molecule `CCOc1ccc(-c2cncc(C(=O)NOCc3cc(N(C)C)ccc3F)n2)cn1` [Compound 40, N-((5-(dimethylamino)-2-fluorobenzyl)oxy)-6-(6-ethoxypyridine-3-yl)pyrazine-2-carboxamide], the half-inhibitory concentration (IC50) is below 500 nM in experiment [1] and above 1000 nM in experiment [2].

As to `CCOc1ccc(-c2cncc(C(=O)NOCc3cc(N(C)C)cnc3F)n2)cn1` [Compound 41, N-((5-(dimethylamino)-2-fluoropyridine-3-yl)methoxy)-6-(6-ethoxypyridine-3-yl)pyrazine-2-carboxamide], the IC50 was below 500 nM in experiment [1] and above 1000 nM in experiment [2].

For the molecule `CCOc1ccc(-c2cncc(C(=O)NOCc3cc(N(C)C)cnc3F)n2)cn1` [Compound 42, N-((5-(dimethylamino)-2-fluoropyridine-3-yl)methoxy)-6-(6-ethoxypyridine-3-yl)pyrazine-2-carboxamide], the IC50 in experiment [1] is below 500 nM; in experiment [2], above 1000 nM.

For `CCOc1ccc(-c2cncc(C(=O)NOCc3cc(O)ccc3F)n2)cn1` [Compound 43, 6-(6-ethoxypyridine-3-yl)-N-((2-fluoro-5-hydroxybenzyl)oxy)pyrazine-2-carboxamide], the IC50 in experiment [1] and in experiment [2] was above 1000 nM each time.

Regarding `CCOc1ccc(-c2cncc(C(=O)NOCc3cc(OC)ccc3O)n2)cn1` [Compound 44, 6-(6-ethoxypyridine-3-yl)-N-((2-hydroxy-5-methoxybenzyl)oxy)pyrazine-2-carboxamide], the IC50 in experiment [1] and in experiment [2] was above 1000 nM throughout.

Regarding `CCOc1ccc(-c2cncc(C(=O)NOCc3cc(C(C)N)ccc3F)n2)cn1` (stereo not drawn) [Compound 45, N-((5-(1-aminoethyl)-2-fluorobenzyl)oxy)-6-(6-ethoxypyridine-3-yl)pyrazine-2-carboxamide], the IC50 in experiment [1] and in experiment [2] was above 1000 nM each time.

Regarding `CCOc1ccc(-c2cncc(C(=O)NOCc3cc(OC)cnc3C)n2)cn1` [Compound 46, 6-(6-ethoxypyridine-3-yl)-N-((5-methoxy-2-methylpyridine-3-yl)methoxy)pyrazine-2-carboxamide], the half-inhibitory concentration (IC50) in experiment [1] and in experiment [2] was above 1000 nM each time.

For the molecule `CCOc1ccc(-c2cncc(C(=O)NOCc3cc(OC)ccc3C)n2)cn1` [Compound 47, 6-(6-ethoxypyridine-3-yl)-N-((5-methoxy-2-methylbenzyl)oxy)pyrazine-2-carboxamide], the IC50 in experiment [1] and in experiment [2] was above 1000 nM throughout.

In the case of `[2H]C([2H])([2H])C([2H])([2H])Oc1ccc(-c2cncc(C(=O)NOCc3cc(OC)ccc3F)n2)cn1` [Compound 48, 6-(6-(ethoxy-d5)pyridine-3-yl)-N-((2-fluoro-5-methoxybenzyl)oxy)pyrazine-2-carboxamide], the IC50 in experiment [1] and in experiment [2] was above 1000 nM throughout.

With `[2H]C([2H])([2H])COc1ccc(-c2cncc(C(=O)NOCc3cc(OC)ccc3F)n2)cn1` [Compound 49, 6-(6-(ethoxy-2,2,2-d3)pyridine-3-yl)-N-((2-fluoro-5-methoxybenzyl)oxy)pyrazine-2-carboxamide], the half-inhibitory concentration (IC50) in experiment [1] and in experiment [2] was above 1000 nM throughout.

Take `[2H]C([2H])(C)Oc1ccc(-c2cncc(C(=O)NOCc3cc(OC)ccc3F)n2)cn1` [Compound 50, 6-(6-(ethoxy-1,1-d2)pyridine-3-yl)-N-((2-fluoro-5-methoxybenzyl)oxy)pyrazine-2-carboxamide]: the IC50 in experiment [1] and in experiment [2] was above 1000 nM each time.

With `[2H]C([2H])([2H])COc1ccc(-c2cncc(C(=O)NOCc3cc(OC([2H])([2H])[2H])ccc3F)n2)cn1` [Compound 52, 6-(6-(ethoxy-2,2,2-d3)pyridine-3-yl)-N-((2-fluoro-5-(methoxy-d3)benzyl)oxy)pyrazine-2-carboxamide], the 50% inhibitory concentration (IC50) in experiment [1] and in experiment [2] was above 1000 nM in each case.

In the case of `[2H]C([2H])([2H])Oc1ccc(F)c(CONC(=O)c2cncc(-c3ccc(OC([2H])([2H])C([2H])([2H])[2H])nc3)n2)c1` [Compound 53, 6-(6-(ethoxy-d5)pyridine-3-yl)-N-((2-fluoro-5-(methoxy-d3)benzyl)oxy)pyrazine-2-carboxamide], the IC50 in experiment [1] and in experiment [2] was above 1000 nM each time.

For the molecule `[2H]C([2H])([2H])Oc1ccc(F)c(C([2H])([2H])ONC(=O)c2cncc(-c3ccc(OC([2H])([2H])C([2H])([2H])[2H])nc3)n2)c1` [Compound 54, 6-(6-(ethoxy-d5)pyridine-3-yl)-N-((2-fluoro-5-(methoxy-d3)phenyl)methoxy-d2)pyrazine-2-carboxamide], the IC50 in experiment [1] and in experiment [2] was above 1000 nM each time.

On to `[2H]C([2H])([2H])Oc1ccc(F)c(CONC(=O)c2cncc(-c3ccc(OCC)nc3)n2)c1` [Compound 55, 6-(6-ethoxypyridine-3-yl)-N-((2-fluoro-5-(methoxy-d3)benzyl)oxy)pyrazine-2-carboxamide], for which the figures for the IC50 in experiment [1] and in experiment [2] were below 500 nM and 500 to 1000 nM, respectively.

Turning to `CCOc1ccc(-c2cncc(C(=O)NOCc3cncn3C)n2)cn1` [Compound 56], the results for the IC50 in experiment [1] and in experiment [2] were below 500 nM and 500 to 1000 nM, respectively.
